# Columns and labels:
# LNCaP cells [1] = assay: MTT cell proliferation assay, LNCaP; type: cell-based, human; conditions: 30 µM, 72 h, average ± SD
# Experimental: (§1) Cell lines, namely LNCaP, PC-3, T47-D and NHDF were obtained from American Type Culture Collection (ATCC; Manassas, VA, USA) and cultured in 75 cm^2 culture flasks at 37 °C in a humidified air incubator with 5% CO2. LNCaP, PC-3 and T47-D cells, which were used in passages 20th to 27th, 25th to 29th and 10th to 15th, respectively, were cultured in RPMI 1640 medium (Sigma-Aldrich, Inc., St. Louis, MO, USA) with 10% fetal bovine serum (FBS; Sigma-Aldrich, Inc. St. Louis, MO, USA) and 1% of the antibiotic mixture of 10,000 IU/mL penicillin G and […] of streptomycin (Sp, Sigma-Aldrich, Inc. St. Louis, MO, USA). Finally, NHDF cells (Normal Human Dermal Fibroblasts) were cultured in RPMI 1640 medium supplemented with 10% FBS, 2 mM L-glutamine, 10 mM HEPES, 1 mM sodium pyruvate and 1% of an antibiotic/antimycotic mixture (10,000 U/mL penicillin G, 100 mg/mL streptomycin and 25 µg/mL amphotericin B) (Ab; Sigma-Aldrich, Inc. St. Louis, MO, USA), and these cells were used in passages 10 to 12. For all cell types, the medium was renewed every 2–3 days until cells reach nearly the confluence state. Then, they were detached gently by trypsinization (trypsin-EDTA solution: 0.125 g/L of trypsin and 0.02 g/L of EDTA).
# (§2) All the stock solutions were prepared by dissolving compounds in dimethyl sulfoxide (DMSO; Sigma-Aldrich, Inc., St. Louis, MO, USA) at 10 mM and stored at 4 °C. From these solutions, the several diluted compounds solutions in different concentrations were freshly prepared in a complete culture medium before each experiment.
# (§3) As previously referred, cells were trypsinized after reaching a near confluence state and counted by the trypan blue exclusion assay in a Neubauer chamber. Then, 100 µL of cell suspension/well with an initial density of 2 × 10^4 cells/mL were seeded in 96-well culture plates (Nunc, Apogent, Denmark) and left to adhere for 48 h. After cells adherence, the medium was replaced by the distinct solutions of the compounds in the study (30 µM for preliminary studies and 0.01, 0.1, 1, 10, 50 and 100 µM for concentration–response studies) in the appropriate medium for approximately 72 h. 5-FU and finasteride were used as positive controls and untreated cells were used as the negative control. Each experiment was performed in quadruplicate and independently performed at least two times. The in vitro antiproliferative effects were evaluated by the MTT assay (Sigma-Aldrich, Inc. St. Louis, USA). After the incubation period, the medium was removed and 100 µL of phosphate buffer saline (NaCl 137 mM, KCl 2.7 mM, Na2HPO4 10 mM and KH2PO4 1.8 mM in deionized water and pH adjusted to 7.4) were used to wash the cells. Then, 100 µL of the MTT solution (5 mg/mL) was prepared in the appropriate serum-free medium and was added to each well, followed by incubation for 4 h at 37 °C. Hereafter, the MTT containing medium was removed and the formazan crystals were dissolved in DMSO. Then the absorbance was measured at 570 nm using a microplate spectrophotometer BIO-RAD xMarkTM. Cell viability values were expressed as percentages relative to the absorbance determined in the cells used as negative controls.
# (§4) The data are expressed as a mean ± standard deviation (SD) and differences between groups were considered statistically significant when p < 0.05. The IC50 values were determined through sigmoidal fitting analysis with variable slope and considering a 95% confidence level. All data shown are representative of at least two independent experiments.
# PC-3 cells = assay: MTT cell proliferation assay, PC-3; type: cell-based, human; conditions: PC-3, 30 µM, 72 h, average ± SD
# Experimental: as §1, §2, §3, §4
# T47-D cells = assay: MTT cell proliferation assay, T47-D; type: cell-based, human; conditions: 30 µM, 72 h, average ± SD
# Experimental: as §1, §2, §3, §4
# [2] = test system: NHDF cells (Normal Human Dermal Fibroblasts); assay: MTT cell proliferation assay, NHDF; type: cell-based; conditions: 30 µM, 72 h, average ± SD
# Experimental: as §1, §2, §3, §4
# LNCaP cells [3] = assay: Microscopic cell morphology observation; type: cell-based, human; conditions: 24 and 72 h of treatment
# Experimental: In our previous work, 16E-arylidene-4-azaandrost-5-ene derivatives were synthesized, their antiproliferative effects were evaluated and further studies were performed with the most promising steroid in LNCaP cells. Due to the similarity of 16E-arylidene-4-azaandrostenes and these novel 21E-arylidene-4-azapregnene derivatives, identical studies in this cell line were performed, namely a flow cytometry assay and microscopic cell morphology observation. To assess the viability of LNCaP cells when exposed to steroid 3g, a flow cytometry assay after PI staining was performed. Cells were treated with 3g and 5-FU during 24 and 72 h, and then a microscopic cell observation was performed to assess the possible morphological alterations and cell density changes triggered by incubation with 3g and compare with controls (Figure 6).
# Similar to the previous study, the analysis of cell viability was accomplished by flow cytometry after staining dead cells with propidium iodide (PI; Invitrogen, Carlsbad, USA). Succinctly, 1 mL of a cell suspension was seeded in 12-well culture plates (initial cell density of 5 × 10^4 cells/mL of LNCaP cells for 24 h assay and 2 × 10^4 cells/mL of the same cell line for 72 h assay) in a complete culture medium. […] The percentages of each region were calculated for a total of R1 + R2 + R3. […]
smiles,measurement,setting,value
"CC(C)(C)NC(=O)[C@H]1CC[C@H]2[C@@H]3CC[C@H]4NC(=O)C=C[C@]4(C)[C@H]3CC[C@]12C [Finasteride, reference compound]","MTT screening, cell proliferation",LNCaP cells [1],88.5 ± 2.4 percentage of negative control
same,"MTT screening, cell proliferation",PC-3 cells,78.8 ± 8.7 percentage of negative control
same,"MTT screening, cell proliferation",T47-D cells,103.5 ± 17.8 percentage of negative control
same,"MTT screening, cell proliferation",[2],62.8 ± 5.9 percentage of negative control
same,Cell morphology and cell density,LNCaP cells [3],cell density reduction and the preservation of healthy cells morphology

# From article PMC9501232, “Novel 4-Azapregnene Derivatives as Potential Anticancer Agents: Synthesis, Antiproliferative Activity and Molecular Docking Studies” (Molecules, 2022)
